Assays:
[1] = Measured pH of preservative working solutions and of tested formulations; format: physicochemical
Description: Separate working solutions of sodium benzoate and potassium sorbate are prepared in citric buffer (pH 5.3) and pH is measured as shown in Table 3.
Five formulations (Table 7) using the citric buffer of Example 1A and the preservatives of Example 1B were tested to determine the stability of the trigger nucleic acid molecule (SEQ ID NO: 1) in a) only sucrose (control); b) sucrose with preservatives; c) sucrose and citric buffer; d) sucrose with equal amounts of each preservative in citric buffer; and e) sucrose with sodium benzoate to potassium sorbate in a 1:0.5 ratio in citric buffer.
Four additional formulations were created to test the ability of sodium benzoate alone to protect a dsRNA from degradation. Sodium benzoate was prepared in a solution with a pH of 4.5.

[2] = citric buffer (pH 5.3)
[3] = preservative 50 mg/mL in citric buffer (pH 5.3)

pH ([1]; preservative 100 mg/mL in citric buffer)	Structure (SMILES)	pH [1, 3]	pH ([1]; preservative 100 mg/mL in ddH2O)	solubility in citric buffer [2]
5.7	O=C([O-])c1ccccc1.[Na+] [Sodium Benzoate]	5.47	–	–
–	C/C=C/C=C/C(=O)[O-].[K+] [Potassium Sorbate]	6.13	8.8	low solubility

From patent US11666056B2, “Methods and compositions for control of arthropod pests” (GREENLIGHT BIOSCIENCES, INC., priority 2019, dated 2023)
